Source: patent publication US10039284B2, “Pesticidal compositions” (priority 2006, dated 2018)
Values joined by “and” are separate entries in the source; they are usually repeats but may differ in a detail not shown here. Equal entries are not always repeated.

Tests used:
[1] = system: Common Cutworm (Spodoptera litura); test: whole plant or invertebrate; conditions: Compound No. 1 alone 0.02 ppm; 5th or 6th day
Experimental: They were diluted to a predetermined concentration with water containing a spreader (Shin-Rinoh 0.040) and subjected to the test by themselves or as a mixed liquid.
A leaf segment of cabbage was dipped for about 10 seconds in an insecticidal solution and dried in air. A wet filter paper was laid in a petri dish having a diameter of 9 cm, and the dried leaf segment of cabbage was placed thereon. 10 Second-instar larvae of common cutworm were released therein and after putting a cover, left in a constant temperature chamber at 25° C. with lightening. On the 5th or 6th day after release, dead larvae were counted, and the mortality was calculated by the following equation. Here, the insects that were moribund were counted as dead insects. Mortality (%)={(number of dead insects)/(number of surviving insects+number of dead insects)}×100
Further, the theoretical mortality (%) can be calculated from the colby's formula.

[2] = system: Green Peach Aphid (Myzus persicae); test: Test on Controlling Effects Against Green Peach Aphid (radish leaf dip); assay type: in vivo; conditions: third day after the dipping
Experimental: Japanese radish leaf (cut into about 2 cm×3 cm) was put in a test tube in which water was put, and Larvae of green peach aphid were released on the leaf. […] On the third day after the dipping, dead larvae were counted, and the mortality was calculated from the following equation. Aphids that dropped from leaf or were moribund were included in the number of dead. […] Mortality (%)=(number of dead insects/number of treated insects)×100

[3] = system: Green Rice Leafhopper (Nephotettix cincticeps); test: Test on Controlling Effects Against Green Rice Leafhopper (rice seedling dip); assay type: in vivo; conditions: Compound No. 1 alone 0.4 ppm; 5th or 6th day
Excerpt: The root was wrapped with absorbent cotton wet with water, and the rice seedling was put in a test tube.

SMILES: CC(NC(=O)c1cc(Cl)cc(Br)c1NC(=O)c1cc(Br)nn1-c1ncccc1Cl)C1CC1 (stereo not drawn) [Compound No. 1, N-[2-bromo-4-chloro-6-[[α-methyl-(cyclopropylmethyl)amino]carbonyl]-phenyl]-3-bromo-1-(3-chloro-2-pyridyl)-1H-pyrazole-5-carboxamide]
- Mortality (%) [1]: 100% and 90% and 70% and 60% and 50%
- Mortality (%) ([2]; Compound No. 1 alone 0.8 ppm): 8% and 11%
- Mortality (%) ([2]; Compound No. 1 alone 1.5 ppm): 46% and 28%
- Mortality (%) [3]: 30% and 50%
